This is an account of results in PMC12383145, “Fluorescent Peptides Internalize HeLa Cells and Kill Multidrug-Resistant Clinical Bacterial Isolates” (Antibiotics, 2025).

In brackets after ≈: the same amount, converted by molar mass. Several values for one entry are separate records, joined by “and”; a condition that tells them apart may be missing. Identical values can stand only once. Like-named read-outs stand apart in the source and are kept apart here. Positions of bridges follow the written chain, without caps; N, C: chain ends. Non-standard residues stand in square brackets, D forms with d. Residues, ends and D or L forms follow the SMILES beside them. Chains are numbered I, II in the order given. *: point of attachment. RhodamineB = CCN(CC)c1ccc2c(-c3ccccc3C(=O)*)c3ccc(=[N+](CC)CC)cc-3oc2c1; hPhe = N[C@@H](CCc1ccccc1)C(=O)O; 2Abz = Nc1ccccc1C(=O)O; Ahx = NCCCCCC(=O)O

Holding throughout (format): cell-based
Data set [1] can be described thus: MTT cytotoxicity assay in HeLa cells. Conditions: human. Here is the method:
MTT assays were conducted in HeLa cells to evaluate the effect of fluorescent probe incorporation on the in vitro cytotoxic activity of the parent non-conjugated peptides. The cytotoxic effect of peptides 1, Abz-1 RhB-1, 2, and RhB-2 in HeLa cells was peptide concentration-dependent, with the highest anticancer activity observed at 200 µg/mL. Incorporation of 2-Abz and RhB at the N-terminal end reduced cytotoxic activity, while the binding of 2-Abz at the C-terminal end or FAM at the N-terminal end drastically diminished anticancer activity (Table 4).

Data set [2] deals with HeLa cells. In words: Fluorescence confocal microscopy, colocalization analysis (ImageJ JaCoP). Conditions: 2 h at IC50, colocalization with SMA antibody. Here is the method:
The possible cellular distribution of the peptides was determined by colocalization analysis of the Rhodamine B fluorescent signal, with fluorophores used to stain the nucleus (Hoechst 33342) and cytoplasm components (SMA antibody). ImageJ 1.54f analysis software and the JaCoP plugin were used to analyze signal colocalization.
HeLa cells (>70% confluence) were seeded on sterile round coverslips in 24-well plates with DMEM + 5% FBS and incubated at 37 °C, 5% CO2 for 24 h. After adhesion, the medium was replaced, and cells were treated with fluorescent peptides at their IC50 for 2 h. Then, cells were washed with PBS under constant stirring (3 × 10 min). Cellular fixation was performed using a solution containing 2% paraformaldehyde and 1% sucrose 100 mM in PBS for 30 min, followed by PBS washes (2 × 10 min). Permeabilization was carried out using a solution of 0.1% Triton X-100 and 20 mM glycine in PBS for 10 min, followed by two additional PBS washes. Blocking was performed with 1% BSA and 20 mM glycine in PBS for 10 min. […] For the fluorescence lecture, 5 µL of Fluoromount mounting medium was applied to the slide, and the coverslip containing the cells was inverted onto the medium. Slides were allowed to be dry-protected from light, and cells were visualized using a Leica DMi8 fluorescence confocal microscope. […]

Data set [3] has as its system HeLa cells. Kind of data set: Micrographs of cell morphology after peptide treatment. Conditions: 100 µg/mL, 2 h, 37 °C. An excerpt:
Despite these pronounced morphological alterations, there was no evidence of cell rupture, membrane disintegration, or the presence of cell fragments, indicating the absence of necrotic processes. […] Green arrows indicate normal morphologies, such as cytoplasmic elongations and polygonal shapes. Red arrows indicate morphological changes induced by the peptides, including cell rounding, shrinkage, and loss of cytoplasmic projections. Scale bar: µm. The control corresponds to untreated cells.

Data set [4] concerns E. coli ATCC 25922. The following applies: E. coli ATCC 25922. The procedure:
(§1) The minimum inhibitory concentration (MIC) of the peptides was determined by the broth microdilution technique, according to the Clinical and Laboratory Standards Institute (CLSI) guidelines, as previously described. Briefly, bacterial strains were incubated in BHI broth at 37 °C until they reached the exponential growth phase, and inocula were adjusted to 5 × 10^6 CFU/mL using calibration curves. Serial dilutions of the peptides to be evaluated in 96-well plates were made in 90 µL of Mueller Hinton broth at concentrations ranging from 200 to 6.25 µg/mL, and 10 µL of the inoculum adjusted to 5 × 10^6 CFU/mL was added. Finally, the plates were incubated at 37 °C for 24 h, and the absorbance at 620 nm was read. As a negative control, CMH, distilled water, and 10 µL of inoculum were used; for the positive control, vancomycin was used for Gram-positive strains and ciprofloxacin for Gram-negative strains at the MICs dictated by the CLSI; as a technical control, CMH with peptone water was used, and for the growth control, CMH was used with 10 µL of inoculum.
(§2) To determine the minimum bactericidal concentration (MBC), the 96-well plates where the MIC was determined were used as a starting point. From these, an aliquot of the controls and those wells where no apparent bacterial growth was observed were spotted onto trypticase soy agar plates. The plates were incubated at 37 °C for 24 h, and the reading was taken, identifying the lowest concentration of the peptide where there was no bacterial growth as the MBC.

Data set [5] has as its system E. faecalis ATCC 29212. Conditions: E. faecalis ATCC 29212. The procedure: as §1, §2
Data set [6] has as its system K. pneumoniae ATCC 700603. The following applies: K. pneumoniae ATCC 700603. Here is the method:
as §1, §2

Data set [7] has as its system P. aeruginosa ATCC 27853. Conditions: P. aeruginosa ATCC 27853. Here is the method:
as §1, §2

Data set [8] concerns S. aureus ATCC 25923. Conditions: S. aureus ATCC 25923. The procedure:
as §1, §2

The subject of data set [9] is S. aureus clinical isolate 11719. The following applies: S. aureus clinical isolate 11719.
Data set [10] deals with E. coli clinical isolate 1004 (susceptible). The following applies: E. coli clinical isolate 1004. The procedure:
(§3) E. coli isolates 1004 (susceptible), 129797 (resistant), and 301755 (MDR) were selected for evaluation. Isolate 1004 was sensitive to all antibiotics tested. […] These findings identify it as a multidrug-resistant (MDR) strain and an extended-spectrum beta-lactamase (ESBL)-producing bacterium. For S. aureus, isolates 109095, 117719, and 124653 were evaluated. All three were resistant to penicillin, indicating beta-lactamase production mediated by the blaZ gene. Studies have shown that up to 90% of S. aureus isolates worldwide are penicillin-resistant, which implies that this antibiotic is ineffective in infections caused by this pathogen. […] Isolate 124653 was resistant to penicillin, tetracycline, and erythromycin, with the latter belonging to the group of macrolides, antibiotics that inhibit protein synthesis through interaction with the 50S […] subunit. For E. faecalis three isolates were selected: strains 213 (sensitive to all the antibiotics tested), strain 82 (resistant to streptomycin), and strain 179 (resistant to gentamicin). These clinical isolates were selected to assess the antimicrobial activity of the peptide RWQWRWQWR and its analogues conjugated to fluorescent molecules in strains against strains with susceptibility profiles.
(§4) The analysis of synthesized peptides in ATCC reference strains and susceptible, resistant, and multidrug-resistant (MDR) clinical isolates was performed. The clinical isolates were obtained from the National Cancer Institute collection and were previously identified and antibiogrammed using the VITEK system. Additionally, the strains were characterized by MALDI-TOF. The strains were re-primed onto trypticase soy agar and subsequently preserved in Brain–Heart Infusion (BHI) broth containing 20% glycerol. For the MIC and MBC assays, the strains were reactivated and cultured in BHI until they reached their exponential growth phase.
as §1, §2

For data set [11], the system named is E. coli clinical isolate 129797 (resistant). The following applies: E. coli clinical isolate 129797. The procedure: as §3, §4, §1, §2
For data set [12], the system named is E. coli clinical isolate 301755 (MDR). The following applies: E. coli clinical isolate 301755. Here is the method:
as §3, §4, §1, §2

Data set [13] concerns E. faecalis clinical isolate 179. Conditions: E. faecalis clinical isolate 179. The procedure:
as §3, §4, §1, §2

Data set [14] has as its system E. faecalis clinical isolate 213. The following applies: E. faecalis clinical isolate 213. Here is the method:
as §3, §4, §1, §2

Data set [15] concerns E. faecalis clinical isolate 82. Conditions: E. faecalis clinical isolate 82. Here is the method:
as §3, §4, §1, §2

For data set [16], the system named is S. aureus clinical isolate 109095. The following applies: S. aureus clinical isolate 109095. The procedure: as §3, §4, §1, §2
Data set [17] relates to S. aureus clinical isolate 124653. Conditions: S. aureus clinical isolate 124653. Here is the method: as §3, §4, §1, §2
In data set [18] the test system is clinical isolates of E. faecalis. The following applies: stated for the E. faecalis clinical isolates together. The procedure: as §3, with “For E. faecalis three isolates were selected: strains 213 (sensitive to all the antibiotics tested), strain 82 (resistant to streptomycin), and strain 179 (resistant to gentamicin). These clinical isolates were selected to assess the antimicrobial activity of the peptide RWQWRWQWR and its analogues conjugated to fluorescent molecules in strains against strains with susceptibility profiles.” left out
The minimum inhibitory concentration (MIC) of the peptides was determined by the broth microdilution technique, according to the Clinical and Laboratory Standards Institute (CLSI) guidelines, as previously described. […] Serial dilutions of the peptides to be evaluated in 96-well plates were made in 90 µL of Mueller Hinton broth at concentrations ranging from 200 to 6.25 µg/mL, and 10 µL of the inoculum adjusted to 5 × 10^6 CFU/mL was added. Finally, the plates were incubated at 37 °C for 24 h, and the absorbance at 620 nm was read. […]

Data set [19] is described as follows: Hemolysis assay. The procedure:
Whole blood was collected into EDTA tubes and centrifuged at 2500 rpm for 10 min. The plasma and buffy coat were removed, and the erythrocytes were washed three times with 0.9% saline to yield a 4% cell suspension. In 96-well plates, 100 µL of peptide dilutions (6.25–200 µg/mL) were prepared in triplicate, and 100 µL of the erythrocyte suspension was added (final hematocrit 2%). Plates were incubated at 37 °C for 2 h, and then centrifuged again at 2500 rpm for 10 min. A 100 µL aliquot of the supernatant was transferred to a fresh plate, and absorbance was measured at 450 nm. Saline and 1× Triton X-100 served as the negative and positive controls, respectively. Hemolysis (%) was calculated as follows: %hemolysis=treatment absorbance−saline absorbance/1×triton absorbance−saline absorbance

As for `CCN(CC)c1ccc2c(-c3ccccc3C(=O)N[C@@H](CCCNC(=N)N)C(=O)N[C@@H](CCCNC(=N)N)C(=O)N[C@@H](Cc3c[nH]c4ccccc34)C(=O)N[C@@H](CCC(N)=O)C(=O)N[C@@H](Cc3c[nH]c4ccccc34)C(=O)N[C@@H](CCCNC(=N)N)C(=O)N[C@@H](CCc3ccccc3)C(=O)N[C@@H](CCCCN)C(=O)N[C@@H](CCCCN)C(=O)N[C@@H](CC(C)C)C(=O)NCC(=O)NCCCC[C@H](NC(=O)CNC(=O)[C@H](CC(C)C)NC(=O)[C@H](CCCCN)NC(=O)[C@H](CCCCN)NC(=O)[C@H](CCc3ccccc3)NC(=O)[C@H](CCCNC(=N)N)NC(=O)[C@H](Cc3c[nH]c4ccccc34)NC(=O)[C@H](CCC(N)=O)NC(=O)[C@H](Cc3c[nH]c4ccccc34)NC(=O)[C@H](CCCNC(=N)N)NC(=O)[C@H](CCCNC(=N)N)NC(=O)c3ccccc3-c3c4ccc(=[N+](CC)CC)cc-4oc4cc(N(CC)CC)ccc34)C(=O)NCCCCCC(N)=O)c3ccc(=[N+](CC)CC)cc-3oc2c1` [RhB-2, (RhB-RRWQWR-hF-KKLG)2K-Ahx] (I: RhodamineB-RRWQWR[hPhe]KKLGK[Ahx]-NH2 / II: RhodamineB-RRWQWR[hPhe]KKLG; amide I:12-II:C), the half-maximal inhibitory concentration (IC50) in data set [1] is 151 µg/mL and 35 µM. Also, the cellular localization result in [2] is “internalized and distributed in the cytoplasm”. Also, the morphological changes result in data set [3] is “appeared smaller, rounded, and contained vacuoles”.
With `N=C(N)NCCC[C@H](NC(=O)[C@H](Cc1c[nH]c2ccccc12)NC(=O)[C@H](CCC(N)=O)NC(=O)[C@H](Cc1c[nH]c2ccccc12)NC(=O)[C@H](CCCNC(=N)N)NC(=O)[C@H](Cc1c[nH]c2ccccc12)NC(=O)[C@H](CCC(N)=O)NC(=O)[C@H](Cc1c[nH]c2ccccc12)NC(=O)[C@H](CCCNC(=N)N)NC(=O)c1ccccc1N)C(N)=O` [Abz-1, (2-Abz)-RWQWRWQWR] (H-[2Abz]RWQWRWQWR-NH2), the “Minimal bactericidal concentration (MBC)” value in [4] was 125 µM (≈ 201 µg/mL); in data set [5] it was 62 µM (≈ 99.6 µg/mL); in data set [6] it was over 125 µM; in data set [7], over 125 µM; in data set [8], 31 µM (≈ 49.8 µg/mL); in [9], over 125 µM. In addition, the Minimal bactericidal concentration (MBC) was over 125 µM in [10]; over 125 µM in [11]; over 125 µM in [12]; 62 µM (≈ 99.6 µg/mL) in [13]; 62 µM (≈ 99.6 µg/mL) in data set [14]; 62 µM (≈ 99.6 µg/mL) in data set [15]. Moreover, the Minimal bactericidal concentration (MBC) in [16] and in data set [17] was over 125 µM in each case. In addition, the “Minimal inhibitory concentration (MIC)” value in data set [4] was 62 µM (≈ 99.6 µg/mL); in data set [5] it was 62 µM (≈ 99.6 µg/mL); in [6], over 125 µM; in data set [7], over 125 µM; in data set [8] it was 16 µM (≈ 25.7 µg/mL); in [9], 125 µM (≈ 201 µg/mL). For the same compound, the Minimal inhibitory concentration (MIC) in [10] was over 125 µM; in [11], over 125 µM; in data set [12], over 125 µM; in [13], 31 µM (≈ 49.8 µg/mL); in [14] it was 31 µM (≈ 49.8 µg/mL); in data set [15] it was 31 µM (≈ 49.8 µg/mL). Also, the Minimal inhibitory concentration (MIC) in data set [16] and in [17] was 125 µM (≈ 201 µg/mL) throughout. The compound also came in with an MIC in [18] of 31 µM (≈ 49.8 µg/mL). Besides, the IC50 in data set [1] (HeLa cells, MTT, read-out: Cytotoxic Activity (IC50)) is 140 µg/mL and 87 µM. The hemolysis at 2 h in data set [19] (at 200 µg/mL (highest tested concentration), 2 h, 37 °C, read-out: hemolysis) is 13.4%; in data set [19] (at the lowest MIC concentration, read-out: Percentage of hemolysis), 6.5%. Besides, the selectivity ratio at 2 h in [19] (peptide concentration at 10% hemolysis / IC50 in HeLa cells, read-out: Selectivity index) turned out to be 0.7.
